Test [1] relates to P-388/Adr cells. In words: growth inhibition of P388/adr cells in culture. Type of test: cell-based, murine. Conditions: mean ± standard deviation, read-out: Gl50 (concentration of lipid required to inhibit the growth of fifty percent of the cells in culture). On the procedure:
(§1) The Gl50 values for edelfosine (1), 2′-deoxy-β-D-arabinopyranosyl (2), 2′-deoxy-α-D-arabinopyranosyl (3), 2-O-methyl-β-D-glucopyranosyl (4), 2′-O-methyl-β-D-mannopyranosyl (5) and α-D-mannopyransoyl (6) on A-549, MCF-7, Lewis Lung, MCF-7/Adr (adriamycin-resistant), P388, P-388/Adr, L1210 and L1210/vmdr cells were determined and are set forth below (see Table 4) as the concentration (micromolar) of lipid required to inhibit the growth of fifty percent of the cells in culture.
(§2) Gl50 values are given as the mean ± standard deviation; the Gl50 value from each experiment “n” was generated from three individual wells on two separate plates (six total wells); n=1 for compounds 3-6; n=2 for most cell lines treated with compound 2 ^an=3; ^bn=2; ^cn=6; ^dn=8.

In test [2] the test system is P388 cells. In words: growth inhibition of P388 cells in culture. It is filed as cell-based, murine. The settings on record: mean ± standard deviation, read-out: Gl50 (concentration of lipid required to inhibit the growth of fifty percent of the cells in culture). On the procedure:
as §1, §2

Test [3] has as its system L1210 cells. In words: growth inhibition of L1210 cells in culture. It is filed as cell-based. Conditions: mean ± standard deviation, read-out: Gl50 (concentration of lipid required to inhibit the growth of fifty percent of the cells in culture). How it is done: as §1, §2
In test [4] the test system is L1210/vmdr cells. The experiment in a line: growth inhibition of L1210/vmdr cells in culture. Type of test: cell-based. Conditions: mean ± standard deviation, read-out: Gl50 (concentration of lipid required to inhibit the growth of fifty percent of the cells in culture). On the procedure: as §1, §2
For test [5], the system named is A549 cells (non-small cell lung adenocarcinoma). In words: growth inhibition of A549 cells in culture. It is filed as cell-based, human. Conditions: mean ± standard deviation, read-out: Gl50 (concentration of lipid required to inhibit the growth of fifty percent of the cells in culture). How it is done:
(§3) Human epithelial cancer cell lines were grown from frozen stocks originally obtained from the ATCC, in media commonly used for growing these cells in culture. For example, A549 cells (non-small cell lung adenocarcinoma) were cultured in Ham's F-12 medium, T84 cells (colon carcinoma) were cultured in a 1:1 mixture of F-12 and DMEM while MCF-7 (breast adenocarcinoma) and A427 (large cell lung carcinoma) cells were cultured in DMEM. The media were supplemented with 10% fetal bovine serum, penicillin (50 U/ml), streptomycin (50 micogram/ml) and fungizone (0.5 microgram/ml). OVCAR-3 cells (ovarian adenocarcinoma) were cultured in RPMI 1640 medium supplemented with 20% FBS and 10 microgram/ml insulin.
(§4) Cells were subcultured into 24-well plates and the cell number was monitored daily. When the cells were in log phase, the media was replaced with one containing the required drug concentration, and the cells were incubated for 72 h. The increase in cell numbers relative to control wells (without any drug) was determined after the incubation. Stock solutions of the drugs ([…]) were prepared in ethanol and stored at −20 deg. C. Etherlipid solutions (30 micromolar) in the appropriate media were prepared fresh on the day of the experiment and serially diluted to give the required concentrations. The final concentration of ethanol in all wells was 0.1% (v/v).
as §2

Test [6] relates to OVCAR-3 cells (ovarian adenocarcinoma). In words: growth inhibition of OVCAR-3 cells in culture. Type of test: cell-based, human. The settings on record: for growth: increase in cell numbers relative to control wells (control = 100): OVCAR-3, 72 h. On the procedure:
as §3, §4

Test [7] relates to Lewis Lung cells. In words: growth inhibition of Lewis Lung cells in culture. Type of test: cell-based, murine. The settings on record: mean ± standard deviation, read-out: Gl50 (concentration of lipid required to inhibit the growth of fifty percent of the cells in culture). How it is done: as §1, §2
The test system of test [8] is HT29 cells. The experiment in a line: growth inhibition of HT29 cells in culture. Type of test: cell-based. The settings on record: read-out: Gl50 (concentration of lipid required to inhibit the growth of fifty percent of the cells in culture).
For test [9], the system named is MCF-7 (breast adenocarcinoma) cells. The experiment in a line: growth inhibition of MCF-7 cells in culture. It is filed as cell-based, human. The settings on record: MCF7, mean ± standard deviation, read-out: Gl50 (concentration of lipid required to inhibit the growth of fifty percent of the cells in culture). On the procedure: as §3, §4, §2
Test [10] has as its system MCF-7/Adr (adriamycin-resistant) cells. The experiment in a line: growth inhibition of MCF7/adr cells in culture. The settings on record: mean ± standard deviation, read-out: Gl50 (concentration of lipid required to inhibit the growth of fifty percent of the cells in culture). It is filed as cell-based, human. On the procedure:
as §1, §2

Like-named read-outs stand apart in the source and are kept apart here.

On to `CCCCCCCCCCCCCCCCCCOCC(COP(=O)([O-])OCC[N+](C)(C)C)OC` (stereo not drawn) [compound 1, edelfosine, reference compound], for which the IC50 was 6.39 µM in test [1] (Mus musculus); 4.33 µM in test [2] (Mus musculus); 3.32 µM in test [3] (Mus musculus); 11 µM in test [4] (Mus musculus); 5.05 µM in test [5] (Homo sapiens); 24 µM in [6] (Homo sapiens, OVCAR-3 ovarian cancer cell line, read-out: Gl50 (the source's name)). Also, the IC50 in [7] (Mus musculus, Lewis lung carcinoma) amounted to 30.2 µM; in [8] (Homo sapiens, HT-29, mean ± standard deviation), 2.2 µM; in test [9] (Homo sapiens) it was 9.66 µM; in [10] (Homo sapiens, NCI/ADR-RES), 30.4 µM. Besides, the “growth: increase in cell numbers relative to control wells (control = 100)” value was determined as 105.8 ± 8.5 in test [6] (lipid concentration 5 μM); 77.5 ± 1.0 in test [6] (lipid concentration 10 μM); 70.7 ± 9.9 in [6] (lipid concentration 15 μM); 68.7 ± 13.6 in test [6] (lipid concentration 20 μM); 20.4 ± 8.1 in [6] (lipid concentration 30 μM).
With `CCCCCCCCCCCCCCCCOC[C@H](CO[C@H]1C[C@H](O)[C@H](O)CO1)OC` [compound 2, 1-O-Hexadecyl-2-O-methyl-3-O-(2′-deoxy-β-D-arabinopyransoyl)-sn-glycerol], the IC50 stood at 10.2 ± 0.34 µM in test [1]; 12.7 ± 0.78 µM in [2]; 7.02 ± 0.49 µM in [3]; 7.09 ± 0.33 µM in [4]; 9.9 ± 0.99 µM in [5]; 11.1 ± 0.49 µM in test [7]. Moreover, the IC50 came to 7.59 ± 0.23 µM in test [8] (mean ± standard deviation), 6.93 ± 0.12 µM in [9] and 12.8 ± 0.85 µM in [10].
With `CCCCCCCCCCCCCCCCOC[C@H](CO[C@@H]1C[C@H](O)[C@H](O)CO1)OC` [compound 3, 1-O-Hexadecyl-2-O-methyl-3-O-(2′-deoxy-α-D-arabinopyransoyl)-sn-glycerol], the IC50 in test [3] was found to be 18.8 ± 0.49 µM; in test [4], 26.9 ± 1.06 µM; in test [5] it was 19.65 ± 0.07 µM; in [8] (mean ± standard deviation) it was 29.6 ± 0.28 µM; in test [9] it was 24.4 ± 0.64 µM; in test [10] it was 24.4 ± 0.42 µM.
For `CCCCCCCCCCCCCCCCOC[C@H](CO[C@@H]1O[C@H](CO)[C@@H](O)[C@H](O)[C@H]1OC)OC` [compound 4, 1-O-Hexadecyl-2-O-methyl-3-O-(2′-methyl-β-D-glucopyransoyl)-sn-glycerol], the IC50 in test [1] came out at 29.3 ± 5.66 µM; in [2], 18.1 ± 1.13 µM; in test [5] it was 18.3 ± 0.14 µM; in test [7], 26 ± 0.71 µM; in test [9], 23.1 ± 0.64 µM; in test [10], 21.8 ± 0.63 µM.
Consider `CCCCCCCCCCCCCCCCOC[C@H](CO[C@H]1O[C@H](CO)[C@@H](O)[C@H](O)[C@@H]1OC)OC` [compound 5, 1-O-Hexadecyl-2-O-methyl-3-O-(2′-O-methyl-α-D-mannopyransoyl)-sn-glycerol], for which the IC50 in test [3] was 15.5 ± 0.35 µM; in test [4], 16.5 ± 1.13 µM; in test [5] it was 15.55 ± 0.07 µM; in test [8] (mean ± standard deviation), 20 ± 0.28 µM; in [9], 18.2 µM; in [10], 18.55 ± 0.07 µM.
As for `CCCCCCCCCCCCCCCCOC[C@H](CO[C@H]1O[C@H](CO)[C@@H](O)[C@H](O)[C@@H]1O)OC` [compound 6, 1-O-Hexadecyl-2-O-methyl-3-O-(α-D-mannopyransoyl)-sn-glycerol], the IC50 in test [3] is 16.2 ± 0.99 µM; in test [4], 18.9 µM; in test [5], 18.1 ± 0.14 µM; in test [8] (mean ± standard deviation) it was 23.2 ± 0.85 µM; in test [9] it was 21.7 ± 0.57 µM; in test [10] it was 23.3 ± 0.71 µM.

Source of the values: patent publication US6573246B1, “Modified ether glyceroglycolipids” (The Liposome Company, Inc., priority 1995, dated 2003).
